Legend:
[1] = biological target: T1, glucocorticoid receptor type 2 (GR) (Homo sapiens, UniProt P04150); settings: cited from earlier work
T1 sequence (P04150 1-777): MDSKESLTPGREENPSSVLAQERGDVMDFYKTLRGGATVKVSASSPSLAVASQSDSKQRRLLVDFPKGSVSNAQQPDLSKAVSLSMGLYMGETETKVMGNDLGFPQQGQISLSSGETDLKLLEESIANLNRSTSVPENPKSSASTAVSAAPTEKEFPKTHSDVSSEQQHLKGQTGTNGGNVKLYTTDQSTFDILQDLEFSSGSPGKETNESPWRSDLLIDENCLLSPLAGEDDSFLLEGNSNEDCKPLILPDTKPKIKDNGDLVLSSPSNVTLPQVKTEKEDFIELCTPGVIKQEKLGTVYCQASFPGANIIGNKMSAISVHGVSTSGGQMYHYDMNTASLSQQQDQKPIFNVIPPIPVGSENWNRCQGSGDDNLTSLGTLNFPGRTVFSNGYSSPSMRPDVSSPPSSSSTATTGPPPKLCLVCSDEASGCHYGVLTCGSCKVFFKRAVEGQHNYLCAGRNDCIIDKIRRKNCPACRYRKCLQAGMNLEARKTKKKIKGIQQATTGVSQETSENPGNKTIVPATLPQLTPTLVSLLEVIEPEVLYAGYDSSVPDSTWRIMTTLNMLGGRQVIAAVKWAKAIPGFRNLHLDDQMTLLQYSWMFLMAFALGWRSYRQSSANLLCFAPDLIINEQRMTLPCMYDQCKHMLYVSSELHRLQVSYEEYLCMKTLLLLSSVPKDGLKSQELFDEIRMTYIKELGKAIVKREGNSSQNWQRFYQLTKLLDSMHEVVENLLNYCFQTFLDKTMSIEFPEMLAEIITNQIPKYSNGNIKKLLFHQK

[2] = Cushing's syndrome patients; cited from earlier work
[3] = via CYP3A and carbonyl reductase; cited from earlier work
CYP2C9 = CYP2C9 (Homo sapiens, UniProt P11712); settings: on administration; cited from earlier work
progesterone receptor = biological target: T2, progesterone receptor (Homo sapiens, UniProt P06401); settings: cited from earlier work
T2 sequence (P06401 1-933): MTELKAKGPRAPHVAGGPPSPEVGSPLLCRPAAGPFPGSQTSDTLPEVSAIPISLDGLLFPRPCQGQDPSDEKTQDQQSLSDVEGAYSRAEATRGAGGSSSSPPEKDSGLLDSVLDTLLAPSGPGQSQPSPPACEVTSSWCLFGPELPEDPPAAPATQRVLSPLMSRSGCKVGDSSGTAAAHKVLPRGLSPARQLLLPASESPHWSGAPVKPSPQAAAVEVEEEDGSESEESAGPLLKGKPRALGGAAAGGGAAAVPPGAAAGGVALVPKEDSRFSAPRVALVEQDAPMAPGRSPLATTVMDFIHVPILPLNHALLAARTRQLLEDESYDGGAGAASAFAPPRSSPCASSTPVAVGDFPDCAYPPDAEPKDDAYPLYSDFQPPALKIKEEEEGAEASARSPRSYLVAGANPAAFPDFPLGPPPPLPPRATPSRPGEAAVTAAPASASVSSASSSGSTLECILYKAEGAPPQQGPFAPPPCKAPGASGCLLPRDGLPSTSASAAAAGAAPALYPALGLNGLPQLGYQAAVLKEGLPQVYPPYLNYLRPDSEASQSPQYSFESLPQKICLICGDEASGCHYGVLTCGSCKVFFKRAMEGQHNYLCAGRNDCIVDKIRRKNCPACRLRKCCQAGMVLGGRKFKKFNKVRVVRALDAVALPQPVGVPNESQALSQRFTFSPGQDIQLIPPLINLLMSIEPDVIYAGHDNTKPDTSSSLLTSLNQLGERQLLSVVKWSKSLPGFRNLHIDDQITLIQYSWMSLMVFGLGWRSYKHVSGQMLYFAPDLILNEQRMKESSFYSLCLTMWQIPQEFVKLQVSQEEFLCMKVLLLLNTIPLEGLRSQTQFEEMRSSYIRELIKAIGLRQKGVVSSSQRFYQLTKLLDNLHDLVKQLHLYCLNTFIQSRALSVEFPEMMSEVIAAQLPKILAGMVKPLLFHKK

[4] = Phase 1 hepatic impairment study of relacorilant (moderate hepatic impairment vs matched controls); format: in vivo, human
Description: A phase 1, open-label, multiple-dose study included 18 subjects (18-70 years). Of these subjects, 9 subjects had moderate hepatic impairment (Child—Pugh Class B) and 9 subjects were controls with normal hepatic function matched for age, sex, and body weight.
Relacorilant was administered at a dose of 300 mg/day for 10 days under fasted conditions. Blood samples for pharmacokinetic (PK) analysis were collected before dosing on Day 1 and from before dosing on Day 10 through 144 hours after the last dose of study drug (Day 16).
Subjects with moderate hepatic impairment were well matched for age, sex, and body weight Mean total Child-Pugh score of 7.9 (range: 7-9) in subjects with moderate hepatic impairment. Liver function was assessed by measurements of alanine aminotransferase (ALT) and aspartate aminotransferase (AST) levels.

[5] = Phase 2 Cushing's syndrome study, low-dose and high-dose groups; format: in vivo, human
Description: A multicenter, open-label study with two dose groups enrolled 34 patients (aged 18-80 years) with endogenous Cushing's Syndrome (CS) and impaired glucose tolerance or type 2 diabetes mellitus and/or uncontrolled or untreated hypertension. Patients with elevated AST or ALT (elevated defined as greater than 3-times the ULN) were excluded. These patients were treated with relacorilant at two dosage levels. The dosages for each group were escalated in 50-mg dose increments every 4 weeks. The low dose group received relacorilant beginning at a dose of 100 mg/day, escalating to dosages of 200 mg/day during the duration of the 12-week treatment. The high-dose group received relacorilant beginning at a dose of 250 mg/day, escalating to a dosage of 400 mg/day during the duration of the 16-week treatment. The P-values shown are the P-values for the mean change from baseline to last observation calculated from the Wilcoxon signed-rank test. The Efficacy Population includes all patients treated with relacorilant who had postbaseline data.

CYP3A4 = CYP3A4 (Homo sapiens, UniProt P08684); settings: in vivo; cited from earlier work
CYP2C8 = biological target: T3, CYP2C8 (Homo sapiens, UniProt P10632); settings: on administration; cited from earlier work
T3 sequence (P10632 1-490): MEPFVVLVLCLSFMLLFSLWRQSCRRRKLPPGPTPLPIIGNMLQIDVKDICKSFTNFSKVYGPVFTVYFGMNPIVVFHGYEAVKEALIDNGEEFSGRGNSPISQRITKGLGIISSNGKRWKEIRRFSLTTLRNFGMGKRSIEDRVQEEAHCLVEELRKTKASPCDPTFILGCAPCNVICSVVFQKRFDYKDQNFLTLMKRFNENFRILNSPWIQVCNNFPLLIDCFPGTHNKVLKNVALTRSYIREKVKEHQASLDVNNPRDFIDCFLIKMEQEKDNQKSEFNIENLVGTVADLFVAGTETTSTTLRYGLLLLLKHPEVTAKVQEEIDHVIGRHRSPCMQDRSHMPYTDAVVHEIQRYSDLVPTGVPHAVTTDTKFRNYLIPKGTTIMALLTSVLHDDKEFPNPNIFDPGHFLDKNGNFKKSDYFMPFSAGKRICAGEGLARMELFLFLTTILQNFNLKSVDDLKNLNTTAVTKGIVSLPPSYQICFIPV

Chain of CYP2C9 (P11712 whole entry): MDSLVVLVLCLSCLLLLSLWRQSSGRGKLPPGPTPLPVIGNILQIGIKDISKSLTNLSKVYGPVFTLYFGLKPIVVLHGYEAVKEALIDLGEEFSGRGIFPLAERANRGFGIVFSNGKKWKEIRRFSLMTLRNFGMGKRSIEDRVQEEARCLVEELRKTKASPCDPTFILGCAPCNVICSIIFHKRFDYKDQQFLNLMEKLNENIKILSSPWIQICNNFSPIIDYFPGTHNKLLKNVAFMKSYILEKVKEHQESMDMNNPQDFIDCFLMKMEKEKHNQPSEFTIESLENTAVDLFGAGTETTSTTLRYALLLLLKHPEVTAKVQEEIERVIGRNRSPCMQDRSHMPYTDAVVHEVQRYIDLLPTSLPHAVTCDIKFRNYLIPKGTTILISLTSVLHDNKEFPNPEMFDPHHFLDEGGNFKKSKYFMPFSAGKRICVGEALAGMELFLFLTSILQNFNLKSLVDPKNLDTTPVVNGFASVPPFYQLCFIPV
Chain of CYP3A4 (P08684 whole entry): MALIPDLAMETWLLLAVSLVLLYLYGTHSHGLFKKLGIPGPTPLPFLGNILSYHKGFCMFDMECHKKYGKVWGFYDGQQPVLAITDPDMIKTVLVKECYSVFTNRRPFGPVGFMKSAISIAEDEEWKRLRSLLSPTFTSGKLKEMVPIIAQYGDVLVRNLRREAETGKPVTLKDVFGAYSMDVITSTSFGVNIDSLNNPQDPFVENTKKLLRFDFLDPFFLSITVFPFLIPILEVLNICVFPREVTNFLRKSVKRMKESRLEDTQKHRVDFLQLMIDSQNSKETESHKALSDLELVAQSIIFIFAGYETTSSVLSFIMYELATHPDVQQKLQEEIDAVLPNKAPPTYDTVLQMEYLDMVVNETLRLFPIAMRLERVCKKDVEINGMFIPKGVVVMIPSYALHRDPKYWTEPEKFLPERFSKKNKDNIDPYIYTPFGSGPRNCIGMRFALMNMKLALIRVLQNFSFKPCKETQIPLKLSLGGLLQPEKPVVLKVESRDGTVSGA

In the case of Cn1cc(S(=O)(=O)N2CCC3=Cc4c(cnn4-c4ccc(F)cc4)C[C@]3(C(=O)c3cc(C(F)(F)F)ccn3)C2)cn1 [relacorilant, (R)-(1-(4-fluorophenyl)-6-((1-methyl-1H-pyrazol-4-yl)sulfonyl)-4,4a,5,6,7,8-hexahydro-1H-pyrazolo[3,4-g]isoquinolin-4a-yl)(4-(trifluoromethyl)pyridin-2-yl)methanone], the “binding to GR” value [1] is listed as “binds”, the “antiprogesterone effects or drug-induced hypokalemia” value [2] is listed as “without antiprogesterone effects or drug-induced hypokalemia” and the “effect on hypertension and hyperglycemia” value [2] is listed as “clinically meaningful improvement”. For the same molecule, the “other cortisol-excess-related comorbidities (hypercoagulopathy, cognitive function, mood, quality of life)” value [2] was “Improvement”, the route of elimination [3] was “primarily hepatic” and the CYP2C9 inhibition (CYP2C9) was “does not result in clinically significant inhibition”. For the same molecule, the “affinity for the progesterone receptor” value (progesterone receptor) was “lacks affinity”, the “pharmacokinetic difference, moderate hepatic impairment vs matched controls” value ([4]; 300 mg/day for 10 days, fasted) was “No apparent difference” and the “relacorilant exposures (area under the curve and maximum plasma concentration) across both groups” value ([4]; moderate hepatic impairment vs matched controls) was “largely overlapped”. For the same molecule, the “change in mean liver function tests (ALT, AST)” value ([4]; patients with moderate hepatic impairment, 300 mg/day for 10 days, fasted, baseline to Day 16) was “Reductions”, the “normalization of ALT in patients with abnormal ALT values at baseline” value ([5]; Cushing's syndrome patients) was 2 of 4 and the “change in LFTs, baseline to last observation” value ([5]; both dose groups (100-200 mg/day 12 weeks; 250-400 mg/day 16 weeks)) was “Reductions”. The “change in LFTs, high-dose group compared with low-dose group” value ([5]; high-dose group 250-400 mg/day, 16 weeks) was “greater reductions”, the CYP3A4 inhibition (CYP3A4) was “strong CYP3A4 inhibitor” and the CYP2C8 inhibition (CYP2C8) was “does not result in clinically significant inhibition”.

Source: patent US20240245659A1, “Methods of Treating Cushing's Syndrome and Liver Disorders, and of Reducing Liver Toxicity of Other Drugs Administered to a Patient” (Corcept Therapeutics Incorporated, priority 2022, published 2024)
